Laboratory results reported in US11524940B1, “Inhibitors of cysteine proteases and methods of use thereof” (priority 2020, dated 2022).

target: 229E Mpro (Human coronavirus 229E (HCoV-229E), UniProt P0C6X1); assay: 229E Mpro activity; format: biochemical; conditions: 229E Mpro EC50
Sequence (P0C6X1 2966-3267 limits assumed): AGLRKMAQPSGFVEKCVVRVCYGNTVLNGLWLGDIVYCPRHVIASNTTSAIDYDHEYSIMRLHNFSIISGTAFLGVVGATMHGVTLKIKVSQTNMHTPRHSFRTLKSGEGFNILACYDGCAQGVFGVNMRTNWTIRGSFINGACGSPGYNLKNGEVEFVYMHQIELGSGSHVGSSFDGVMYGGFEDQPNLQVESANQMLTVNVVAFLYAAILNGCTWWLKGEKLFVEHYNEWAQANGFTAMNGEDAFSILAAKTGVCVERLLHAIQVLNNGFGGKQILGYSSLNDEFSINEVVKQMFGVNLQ
Procedure: Compounds are assayed using standard methods to assess compound activity and IC50. […] The assay buffer contains 20 mM of Tris-HCl (pH 7.3), 100 mM of NaCl, 1 mM of EDTA, 5mM of TCEP and 0.1% BSA.

Structure (SMILES) | EC50 [nM]
COc1cccc2[nH]c(C(=O)N[C@H](CC(C)C)C(=O)N[C@@H](CC3CCNC3=O)C(=O)CO)cc12 (stereo partly drawn) [Compound 740, N-[(1R)-1-[[(1S)-3-hydroxy-2-oxo-1-[[(3S)-2-oxopyrrolidin-3-yl]methyl]propyl]carbamoyl]-3-methyl-butyl]-4-methoxy-1H-indole-2-carboxamide] | 10000 to 30000
COCCOCCOc1cccc2[nH]c(C(=O)NC(CC(C)(C)C)C(=O)NC(C#N)CC3CCCNC3=O)cc12 (single isomer, unassigned) [875 (Isomer 2)] | < 2000

same assay, conditions: read-out: 229E Mpro EC50

Structure (SMILES) | EC50 [nM]
N#C[C@H](C[C@@H]1CCCNC1=O)NC(=O)[C@H](CC1CC1)NC(=O)c1cc2c(C(F)(F)F)cccc2[nH]1 [Compound 856, N-((S)-1-(((S)-1-cyano-2-((S)-2-oxopiperidin-3-yl)ethyl)amino)-3-cyclopropyl-1-oxopropan-2-yl)-4-(trifluoromethyl)-1H-indole-2-carboxamide] | < 2000
COc1cccc2[nH]c(C(=O)N[C@@H](CC(C)C)C(=O)NC(C#N)Cc3cc(=O)[nH]c4ccccc34)cc12 (mixture of isomers) [Compound 237, N-[(1S)-1-[[1-cyano-2-(2-oxo-1H-quinolin-4-yl)ethyl]carbamoyl]-3-methyl-butyl]-4-methoxy-1H-indole-2-carboxamide] | > 30000
N#C[C@H](C[C@@H]1CCNC1=O)NC(=O)C1CC2(CCCCC2)CN1C(=O)c1cc2ccc(Cl)c(Cl)c2[nH]1 (single isomer, unassigned) [986 (Isomer 2)] | > 30000
N#C[C@H](C[C@@H]1CCNC1=O)NC(=O)[C@H](CC1CC1)NC(=O)c1cc2c(Cl)ccc(Cl)c2[nH]1 [Compound 691, 4,7-dichloro-N-[(1S)-2-[[(1S)-1-cyano-2-[(3S)-2-oxopyrrolidin-3-yl]ethyl]amino]-1-(cyclopropylmethyl)-2-oxo-ethyl]-1H-indole-2-carboxamide] | < 2000
COc1cccc2[nH]c(C(=O)N3CC4(CCC4)CC3C(=O)N[C@H](C#N)C[C@@H]3CCNC3=O)cc12 (single isomer, unassigned) [399A (Isomer 1)] | < 2000
COc1ccc2[nH]c(C(=O)N[C@@H](CC3CC3)C(=O)N[C@H](C#N)C[C@@H]3CCCNC3=O)cc2n1 [Compound 621, N-[(1S)-2-[[(1S)-1-cyano-2-[(3S)-2-oxo-3-piperidyl]ethyl]amino]-1-(cyclopropylmethyl)-2-oxo-ethyl]-5-methoxy-1H-pyrrolo[3,2-b]pyridine-2-carboxamide] | < 2000
N#C[C@H](C[C@@H]1CCCNC1=O)NC(=O)[C@H](CC1CC1)NC(=O)c1cc2cc(F)cc(Cl)c2[nH]1 [Compound 830, 7-chloro-N-((S)-1-(((S)-1-cyano-2-((S)-2-oxopiperidin-3-yl)ethyl)amino)-3-cyclopropyl-1-oxopropan-2-yl)-5-fluoro-1H-indole-2-carboxamide] | < 2000
N#C[C@H](C[C@@H]1CCCNC1=O)NC(=O)[C@H](CC1CC1)NC(=O)c1cc(Cl)c(Cl)[nH]1 [Compound 866, 4,5-dichloro-N-[(1S)-2-[[(1S)-1-cyano-2-[(3S)-2-oxo-3-piperidyl]ethyl]amino]-1-(cyclopropylmethyl)-2-oxo-ethyl]-1H-pyrrole-2-carboxamide] | < 2000
N#C[C@H](C[C@@H]1CCCNC1=O)NC(=O)[C@H](CC1CC1)NC(=O)c1cc2cc(Cl)cc(Cl)c2[nH]1 [Compound 842, 5,7-dichloro-N-[(1S)-2-[[(1S)-1-cyano-2-[(3S)-2-oxo-3-piperidyl]ethyl]amino]-1-(cyclopropylmethyl)-2-oxo-ethyl]-1H-indole-2-carboxamide] | < 2000
N#C[C@H](C[C@@H]1CCCNC1=O)NC(=O)[C@H](CC1CC1)NC(=O)c1cc2ccc(F)c(Br)c2[nH]1 [Compound 850] | 10000 to 30000
COc1cccc2[nH]c(C(=O)N3CC(C45CC(C4)C5)C[C@H]3C(=O)N[C@H](C#N)C[C@@H]3CCNC3=O)cc12 (single isomer, unassigned) [385 (Isomer 2)] | < 2000
COc1cccc2[nH]c(C(=O)N3C[C@H](SC)C[C@H]3C(=O)N[C@H](C#N)C[C@@H]3CCNC3=O)cc12 [Compound 551, (2S,4R)-N-[(1S)-1-cyano-2-[(3S)-2-oxopyrrolidin-3-yl]ethyl]-1-(4-methoxy-1H-indole-2-carbonyl)-4-methylsulfanyl-pyrrolidine-2-carboxamide] | < 2000
N#C[C@H](C[C@@H]1CCNC1=O)NC(=O)C1CC2(CCCCC2)CN1C(=O)c1cc2cccc(Cl)c2[nH]1 (single isomer, unassigned) [984 (Isomer 2)] | > 30000
CCO[C@@H]1C[C@@H](C(=O)N[C@H](C#N)C[C@@H]2CCNC2=O)N(C(=O)c2cc3c(OC)cccc3[nH]2)C1 [Compound 535] | > 30000
N#C[C@H](C[C@@H]1CCCNC1=O)NC(=O)[C@H](CC1CC1)NC(=O)c1ccc(Cl)[nH]1 [Compound 864] | < 2000
N#C[C@H](C[C@@H]1CCNC1=O)NC(=O)C1CC2(CCCCC2)CN1C(=O)c1cc2ccc(Cl)c(Cl)c2[nH]1 (single isomer, unassigned) [986 (Isomer 1)] | < 2000
COc1cc(Cl)c2[nH]c(C(=O)N[C@@H](CC(C)(C)C)C(=O)N[C@H](C#N)C[C@@H]3CCCNC3=O)cc2c1 [Compound 810, 7-chloro-N-[(1S)-1-[[(1S)-1-cyano-2-[(3S)-2-oxo-3-piperidyl]ethyl]carbamoyl]-3,3-dimethyl-butyl]-5-methoxy-1H-indole-2-carboxamide] | < 2000
N#C[C@H](C[C@@H]1CCCNC1=O)NC(=O)[C@H](CC1CC1)NC(=O)c1cc2c(Cl)c(F)ccc2[nH]1 [Compound 822, 4-chloro-N-[(1S)-2-[[(1S)-1-cyano-2-[(3S)-2-oxo-3-piperidyl]ethyl]amino]-1-(cyclopropylmethyl)-2-oxo-ethyl]-5-fluoro-1H-indole-2-carboxamide] | < 2000

Structure (SMILES) | EC50 [nM]
COc1cccc2[nH]c(C(=O)N[C@@H](CC(C)C)C(=O)N[C@@H](C[C@@H]3CCNC3=O)C3OC(=O)N(C(C)C)C3=N)cc12 (stereo partly drawn) [Compound 357, N-((2S)-1-(((1S)-1-(4-imino-3-isopropyl-2-oxooxazolidin-5-yl)-2-((S)-2-oxopyrrolidin-3-yl)ethyl)amino)-4-methyl-1-oxopentan-2-yl)-4-methoxy-1H-indole-2-carboxamide] | > 30000
COc1cccc2[nH]c(C(=O)N[C@H](CC3CC3)C(=O)N[C@@H](C#N)C[C@@H]3CCCNC3=O)cc12 (single isomer, unassigned) [491 (Isomer 4)] | < 2000
COCCOCCOc1cccc2[nH]c(C(=O)N[C@@H](CC(C)(C)C)C(=O)N[C@H](C#N)C[C@@H]3CCCNC3=O)cc12 [Compound 876, N-[1-[[1-cyano-2-[(3S)-2-oxo-3-piperidyl]ethyl]carbamoyl]-3,3-dimethyl-butyl]-4-[2-(2-methoxyethoxy)ethoxy]-1H-indole-2-carboxamide] | < 2000
COc1cccc2[nH]c(C(=O)N[C@@H](CC(C)C)C(=O)NC(C#N)Cc3cc[nH]n3)cc12 (mixture of isomers) [Compound 241, N-[(1S)-1-[[1-cyano-2-(1H-pyrazol-3-yl)ethyl]carbamoyl]-3-methyl-butyl]-4-methoxy-1H-indole-2-carboxamide] | > 30000
CN(C(=O)c1cc2cccc(Cl)c2[nH]1)[C@@H](CC1CC1)C(=O)N[C@H](C#N)C[C@@H]1CCCNC1=O [Compound 1137] | 2000 to 10000
CN1CCCC[C@]12CCN([C@H](CC1CC1)C(=O)N[C@H](C#N)C[C@@H]1CCNC1=O)C2=O [Compound 273A, (2R)-N-[(1S)-1-cyano-2-[(3S)-2-oxopyrrolidin-3-yl]ethyl]-3-cyclopropyl-2-[(5R)-6-methyl-1-oxo-2,6-diazaspiro[4.5]decan-2-yl]propanamide] | > 30000
N#C[C@H](C[C@@H]1CCNC1=O)NC(=O)[C@@H](CC1CC1)N1CCc2cc[nH]c2C1=O [Compound 267A, (2R)-N-[(1S)-1-cyano-2-[(3S)-2-oxopyrrolidin-3-yl]ethyl]-3-cyclopropyl-2-(7-oxo-4,5-dihydro-1H-pyrrolo[2,3-c]pyridin-6-yl)propanamide] | > 30000
COc1cccc2[nH]c(C(=O)N[C@@H](CC3CC3)C(=O)N[C@@]3(C#N)CCc4cccnc4C3)cc12 [Compound 279] | > 30000
N#C[C@]1(NC(=O)[C@H](CC2CC2)NC(=O)OCc2ccccc2)C[C@H]2CC[C@@H]1[C@H]1C(=O)NC(=O)[C@@H]21 (single isomer, unassigned) [495 (Isomer 1)] | > 30000
COc1ccc2[nH]c(C(=O)N3CC4(CCCCC4)CC3C(=O)N[C@H](C#N)C[C@@H]3CCNC3=O)cc2c1Cl (single isomer, unassigned) [880 (Isomer 2)] | < 2000
COc1cccc2[nH]c(C(=O)N3CC4(CCCCC4)CC3C(=O)N[C@H](C#N)C[C@@H]3CCNC3=O)cc12 (single isomer, unassigned) [389A (Isomer 1)] | < 2000
COc1cccc2[nH]c(C(=O)N3C[C@H](c4ccccc4)C[C@H]3C(=O)N[C@@H](C[C@@H]3CCNC3=O)C(O)C#N)cc12 (single isomer, unassigned) [345 (Isomer 2)] | < 2000
COc1cc(Cl)c2[nH]c(C(=O)N[C@@H](CC(C)(C)C)C(=O)N[C@H](C#N)C[C@@H]3CCNC3=O)cc2c1 [Compound 894] | < 2000
N#C[C@H](C[C@@H]1CCCNC1=O)NC(=O)[C@H](CC1CC1)NC(=O)c1cc2ccc(F)c(Cl)c2[nH]1 [Compound 828, 7-chloro-N-[(1S)-2-[[(1S)-1-cyano-2-[(3S)-2-oxo-3-piperidyl]ethyl]amino]-1-(cyclopropylmethyl)-2-oxo-ethyl]-6-fluoro-1H-indole-2-carboxamide] | < 2000
COc1cccc2[nH]c(C(=O)N3CC4(CCC4)CC3C(=O)N[C@H](C#N)C[C@@H]3CCCNC3=O)cc12 (single isomer, unassigned) [719 (Isomer 2)] | < 2000
N#C[C@H](C[C@@H]1CCNC1=O)NC(=O)[C@@H]1C[C@@H](c2ccccc2)CN1C(=O)/C=C/c1ccc(Cl)cc1F [Compound 209, (2S,4S)-1-((E)-3-(4-chloro-2-fluorophenyl)acryloyl)-N-((S)-1-cyano-2-((S)-2-oxopyrrolidin-3-yl)ethyl)-4-phenylpyrrolidine-2-carboxamide] | 2000 to 10000
COc1cccc2[nH]c(C(=O)N[C@@H](CC3CC3)C(=O)N[C@@H](C#N)C[C@@H]3CCCNC3=O)cc12 [Compound 491B] | 10000 to 30000
